Experimental data: patent US20240393340A1, “PROGNOSIS AND PREDICTIVE BIOMARKERS AND BIOLOGICAL APPLICATIONS THEREOF” (INSTITUT GUSTAVE ROUSSY, priority 2013, published 2024)

Experiments:
Format in all cases: cell-based
[1] = tested on: eIF4F complex; assay: Cap binding assay (m7GTP-Sepharose beads)
Procedure: FIG. 3: Examination of eIF4F complex formation by the “cap binding assay” in the indicated cell lines. Eluates from the beads (m7G-bound) and total extracts (input) were analyzed on 4% to 12% gradient gel electrophoresis, followed by Western blotting with the indicated antibodies.
Cells were grown for 48 h in 10% Fetal Bovine Serum (FBS) followed by 24 h without FBS. Cells were subsequently grown for 12 h in the absence or the presence of trastuzumab. Cells were harvested and lysed in ice-cold lysis buffer (KCl 150 mM, Hepes pH 7.5 50 mM, DTT 2 mM, Tween 20 0.2%, and Complete Protease Inhibitor Cocktail from Roche). Cell lysates were incubated with 7-methyl-GTP-sepharose 4B beads (Amersham Biosciences) for 2 h at 4° C. Eluates from the beads (7 mG-bound) and total extracts (Tot.) were analyzed on 4-12% gradient gel electrophoresis followed by western blot. Experiments were repeated at least 4 times.
In a so-called “cap binding assay”, synthetic m7GTP-Sepharose beads were used to capture eIF4E and its binding partners, eIF4G (called Cap-ON complex) and 4EBP1 (called Cap-OFF complex). The inventors observed that following PLX-4720 treatment, the amount of eIF4E-bound 4EBP1 (Cap-OFF complex) was increased, whereas the quantity of eIF4E-bound eIF4G (Cap-ON complex), i.e. the formation of the active eIF4F complex, was decreased in the two PLX-4720-sensitive cell lines (A375, Mel888) (FIG. 3). In contrast, and consistent with the inventors' hypothesis, the formation of the eIF4F complex was unchanged in the two cell lines (Mel624, A2058) with less sensitivity to PLX-4720.

[2] = tested on: A2058; assay: Short-term growth-inhibition assay (Example 1)
Procedure: (§1) FIGS. 1A-1B: Short-term growth-inhibition assay of a panel of melanoma cell lines including BRAF (V600E) cell lines and an NRAS (Q61R) mutated cell line. FIG. 1A. Cells were treated with increasing concentrations of N-[3-[(5-Chloro-1H-pyrrolo[2,3-b]pyridin-3-yl)carbonyl]-2,4-difluorophenyl]-1-propanesulfonamide (PLX-4720) for 72 h and cell viability was determined using CellTiter-Blue by measuring the absorbance at 540 nm in a microplate reader. Error bars show data +standard error. Means were derived from four replicates (n=4). FIG. 1B. Long-term colony formation assay of the indicated cells. Cells were grown in the absence or presence of PLX-4720 at the indicated concentrations for 15-20 days. For each cell line, all dishes were fixed at the same time, stained and photographed. […]
(§2) The inventors quantified the effect of exposing these cell lines to PLX-4720 on the half-maximum inhibitory concentration (IC50) (Table 1).

[3] = tested on: Mel624; assay: Short-term growth-inhibition assay (Example 1)
Procedure: as §1, §2

[4] = tested on: eIF4E-eIF4G and eIF4E-4EBP1 interactions; assay: Proximity ligation assay in cell lines
Description: FIGS. 4A-4B: The interactions between eIF4E and eIG4G (“Cap-ON”) and between […] (“Cap-OFF” interaction) are (FIG. 4A) visualized by the PLA technique and (FIG. 4B) quantified (number of points per 100 nucleus) using ImageJ for the indicated cell lines and treatments.
FIGS. 5A-5C: The interactions between eIF4E and eIF4G (“Cap-ON”) and between […] (“Cap-OFF” interaction) are (FIG. 5A) visualized by the PLA technique and (FIG. 5B) quantified (number of points per 100 nucleus) using ImageJ for the indicated cell lines and treatments. (FIG. 5C) Cells were treated with increasing concentrations of PLX-4720 for 72 h, and cell viability was determined using CellTiter-Blue by measuring the absorbance at 540 nm in a microplate reader. Error bars show datatstandard error. Means were derived from four replicates (n=4).
FIGS. 9A-9B: The formation of the eIF4F translation initiation complex is associated with resistance to anti-BRAF inhibitors. FIG. 9A: Quantification of the proximity ligation assay showing the number of red spots (corresponding to the interactions between eIF4E-elF4G or eIF4E-4EBP1) per 100 nuclei (quantified with the Volocity software). Data are means±s.d. (n=3). Significance determined by Mann-Whitney U test (*P<0.05, **P<0.01). FIG. 9B: The eIF4E-eIF4G and eIF4E-4EBP1 interactions detected by in situ proximity ligation assay in vemurafenib (6 μM)-treated (24 h) or untreated HT29 colon cancer cell line and BCPAP thyroid cancer cell line respectively. The interactions were visualised as red fluorescent spots by the scanner Olympus VS120. Cell nuclei were stained with DAPI (blue).
Proximity ligation assays (PLAs) were performed on both fixed and permeabilized transfected cell lines in chamber slides and TMA slides containing melanoma tissue. Following dewaxing and rehydrating of tissue sections, antigen retrieval was performed by heating the slides for 30 min at 95° C. in TE buffer, pH 9. […] The number of in situ PLA signals per cell was counted by semi-automated image analysis. […]

[5] = sensitive cell lines A375, Mel888
[6] = sensitive cell lines A375, Mel888, treated vs untreated

formation / disruption of the eIF4F (eIF4E-eIF4G) complex ([1]; less sensitive cell lines Mel624, A2058): unchanged
amount of eIF4E-bound 4EBP1 (Cap-OFF complex) [1, 5]: increased
quantity of eIF4E-bound eIF4G (Cap-ON complex) [1, 5]: decreased
Structure (SMILES): CCCS(=O)(=O)Nc1ccc(F)c(C(=O)c2c[nH]c3ncc(Cl)cc23)c1F [PLX-4720, N-[3-[(5-Chloro-1H-pyrrolo[2,3-b]pyridin-3-yl)carbonyl]-2,4-difluorophenyl]-1-propanesulfonamide]
sensitivity of the cell line compared to the other BRAF (V600E)-mutated melanoma cell lines ([2]; A2058, short-term and long-term proliferation assays, Example 1): less sensitive
IC50 ([2]; Homo sapiens, A2058 cell line, read-out: half-maximum inhibitory concentration (IC50)): 2.4 µM
sensitivity of the cell line compared to the other BRAF (V600E)-mutated melanoma cell lines ([3]; Mel624, short-term and long-term proliferation assays, Example 1): less sensitive
IC50 ([3]; Mel624 cell line, read-out: half-maximum inhibitory concentration (IC50)): 4.4 µM
Cap-ON and Cap-OFF interaction ([4]; less sensitive / resistant cell lines Mel624, A2058): didn't affect
eIF4E-4EBP1 (Cap-OFF) interaction [4, 6]: increase
eIF4E-eIF4G (Cap-ON) interaction [4, 6]: reduced signal counts
